≈ marks a conversion by molar mass, not a printed value. Read-outs that look alike come from different tables or passages of the source. Where a SMILES comes first, the peptide text is derived from it. Bridges are numbered along the chain shown (N, C = ends).

Assay [1] concerns Acinetobacter calcoaceticus. Description: microbe, parasite or virus in culture. The conditions noted are these: Acinetobacter calcoaceticus. How it is done: (§1) Antimicrobial activities of cathelicidin-BF and cathelicidin-BF15 ([…]) were tested according to our previous methods [39]–[42]. […] The details were provided in the Materials and Methods S1.
(§2) Standard and clinically isolated microorganism strains were used for antimicrobial assays. Bacteria were first grown in LB (Luria-Bertani) broth to an OD600 nm of 0.8. A 10 µl aliquot of the bacteria was then taken and added to 8 ml of fresh LB broth with 0.7% agar and poured over a 90 mm Petri dish containing 25 ml of 1.5% agar in LB broth. After the top agar hardened, a 20 µl aliquot of the test sample filtered on a 0.22 µm Millipore filter was dropped onto the surface of the top agar and completely dried before being incubated overnight at 37 °C. If the sample examined had antimicrobial activity, a clear zone would be formed on the surface of the top agar representing inhibition of bacterial growth. Minimal inhibitory concentration (MIC) was determined in liquid LB medium by incubating the bacteria in LB broth with variable amounts of the sample tested. The MIC at which no visible growth occurred was recorded. In the assays of anti-fungi activity, for strains of Aspergillus terreus, A. niculans, and Chaetomium globosum, the fungal spore concentration was first counted under a microscope. The fungi with an initial concentration of 10^5 spores/ml were cultured with variable amounts of the sample tested in yeast extract-peptone-dextrose broth.

The next assay relates to Bacillus cereus. Description: microbe, parasite or virus in culture. The following applies: Bacillus cereus. On the procedure: as §1, §2
For another assay, the system named is Bacillus pumilus. Description: microbe, parasite or virus in culture. The following applies: Bacillus pumilus. How it is done:
as §1, §2

A further assay concerns Bacillus subtilis. Kind of assay: microbe, parasite or virus in culture. How it is done:
as §1, §2

Assay [2] deals with Candida albicans ATCC2002. Description: microbe, parasite or virus in culture. How it is done: as §1, §2
Assay [3] has as its system Escherichia coliATCC25922. Description: microbe, parasite or virus in culture. On the procedure:
as §1, §2

In assay [4] the test system is Pseudomonas aeruginosa ATCC27853. Description: microbe, parasite or virus in culture. The following applies: ATCC27853. How it is done:
as §1, §2

The test system of assay [5] is Staphylococcus aureus ATCC2592. Description: microbe, parasite or virus in culture. The following applies: ATCC2592. How it is done:
as §1, §2

For a further assay, the system named is Aspergillus niculans. The conditions noted are these: saprophytic fungus; 10^5 spores/ml, yeast extract-peptone-dextrose broth; mean of three independent experiments in duplicates; ND = no detectable activity. How it is done:
as §1, §2

Assay [6] deals with Aspergillus terreus GIM3.34. The following applies: saprophytic fungus; 10^5 spores/ml, yeast extract-peptone-dextrose broth; mean of three independent experiments in duplicates; ND = no detectable activity. How it is done:
as §1, §2

In another assay the test system is Chaetomium globosum. The conditions noted are these: saprophytic fungus; 10^5 spores/ml, yeast extract-peptone-dextrose broth; mean of three independent experiments in duplicates; ND = no detectable activity. On the procedure: as §1, §2
For assay [7], the system named is K. pneumoniae standard strain. Kind of assay: MIC determination, standard strain. It counts as cell-based. The conditions noted are these: Klebsiella pneumoniae. How it is done:
as §1
as §2, with “The fungi with an initial concentration of 10^5 spores/ml were cultured with variable amounts of the sample tested in yeast extract-peptone-dextrose broth.” left out

For the next assay, the system named is E. coli 08A866(IS, DR). The conditions noted are these: clinically isolated strain, drug resistance for ampicillin and benzylpenicillin; liquid LB broth; mean of three independent experiments in duplicates; ND = no detectable activity. On the procedure:
as §1, §2

The test system of a further assay is E. coli 08A866. The class given is cell-based, Escherichia coli. The conditions noted are these: for Amount of bacteria co-cultured with sample: Table 4, LB, 35 °C. On the procedure:
The details were provided in the Materials and Methods S1.
Fresh overnight colonies were added to a total of 20 ml LB, and incubated on a 35 °C water bath. After one hour of incubation, 1 ml broth from each flask was replaced with the test solution. The colony counting was performed at different time after addition of the test solutions as described by Mygind et al.

Consider `CC1(C)S[C@@H]2[C@H](NC(=O)[C@H](N)c3ccccc3)C(=O)N2[C@H]1C(=O)O` [ampicillin], for which the MIC in [1] was 75 µg/mL (≈ 215 µM); with Bacillus cereus, 150 µg/mL (≈ 429 µM); against Bacillus pumilus it was 0.15 µg/mL (≈ 0.429 µM); with Bacillus subtilis (Bacillus subtilis) it was 0.02 µg/mL (≈ 0.0572 µM); in assay [2] (Candida albicans), 0.3 µg/mL (≈ 0.859 µM); in assay [3] (Escherichia, COLIATCC25922), 18.7 µg/mL (≈ 53.5 µM). In addition, the MIC is 150 µg/mL (≈ 429 µM) in assay [4] (Pseudomonas aeruginosa); 0.15 µg/mL (≈ 0.429 µM) in assay [5] (Staphylococcus aureus); “no effect” with Aspergillus niculans; “no effect” in [6]; “no effect” in the assay with Chaetomium globosum; 150 µg/mL (≈ 429 µM) in [7].

Consider `CC[C@H](C)[C@H](NC(=O)[C@H](C)NC(=O)[C@@H](NC(=O)[C@@H]1CCCN1C(=O)[C@H](CC(C)C)NC(=O)[C@@H](NC(=O)[C@H](CO)NC(=O)[C@@H](NC(=O)[C@H](C)NC(=O)[C@@H](NC(=O)[C@H](CCCCN)NC(=O)[C@H](CC(C)C)NC(=O)[C@@H](NC(=O)[C@@H]1CCCN1C(=O)CNC(=O)[C@@H](NC(=O)[C@@H](N)Cc1ccccc1)[C@@H](C)CC)C(C)C)[C@@H](C)CC)[C@@H](C)O)[C@@H](C)CC)[C@@H](C)O)C(=O)N[C@H]1CSSC[C@@H](C(=O)O)NC(=O)[C@H](CCCCN)NC(=O)[C@H](CCCCN)NC(=O)[C@H](Cc2ccccc2)NC(=O)[C@H]([C@@H](C)CC)NC(=O)[C@H](CCCCN)NC1=O` [HDW] (H-FIGPVLKIATSILPTAICKIFKKC-OH; disulfide 18-24 (inferred); N-terminus and C-terminus assumed), for which the MIC in the assay on Bacillus subtilis turned out to be 2.3 µg/mL (≈ 0.883 µM); in assay [2], 2.3 µg/mL (≈ 0.883 µM); in assay [3] (ATCC25922), 18.7 µg/mL (≈ 7.18 µM); in assay [4], 37.5 µg/mL (≈ 14.4 µM); in assay [5], 1.2 µg/mL (≈ 0.461 µM); with E. coli 08A866(IS, DR), 18.7 µg/mL (≈ 7.18 µM). Moreover, the “Amount of bacteria co-cultured with sample” value with E. coli 08A866 (sample at 1 times MIC, time 0.1 min) was 49 CFU; in the assay on E. coli 08A866 (sample at 1 times MIC, time 1 min), 14.7 CFU; in the assay on E. coli 08A866 (sample at 1 times MIC, time 10 min), 0 CFU; in the assay on E. coli 08A866 (sample at 1 times MIC, time 30 min), 0 CFU; in the assay on E. coli 08A866 (sample at 10 times MIC, time 0.1 min), 38 CFU; in the assay with E. coli 08A866 (sample at 10 times MIC, time 1 min), 3.7 CFU. Moreover, the “Amount of bacteria co-cultured with sample” value with E. coli 08A866 (sample at 10 times MIC, time 10 min) came out at 0 CFU; with E. coli 08A866 (sample at 10 times MIC, time 30 min), 0 CFU. Also, the “time to clean E. coli” value in the assay on E. coli 08A866 (killing kinetics during 30 min (Table 4), comparison of cathelicidin-BF and HDW) is recorded as “several minutes”.

For `CC1(C)S[C@@H]2[C@H](NC(=O)Cc3ccccc3)C(=O)N2[C@H]1C(=O)O` [benzylpenicillin], the MIC in [1] was 37.5 µg/mL (≈ 112 µM); in the assay on Bacillus cereus it was 150 µg/mL (≈ 449 µM); in the assay on Bacillus pumilus, 0.015 µg/mL (≈ 0.0449 µM); in the assay on Bacillus subtilis (Bacillus subtilis) it was 0.004 µg/mL (≈ 0.012 µM); in assay [2] (Candida albicans), 0.03 µg/mL (≈ 0.0897 µM); in assay [3] (Escherichia, COLIATCC25922), 37.5 µg/mL (≈ 112 µM). Further, the MIC in [4] (Pseudomonas aeruginosa) was 18.7 µg/mL (≈ 55.9 µM); in assay [5] (Staphylococcus aureus), 0.03 µg/mL (≈ 0.0897 µM); in the assay with Aspergillus niculans it was “no effect”; in [6] it was “no effect”; with Chaetomium globosum it was “no effect”; in assay [7] it was 18.7 µg/mL (≈ 55.9 µM).

The record behind these values is paper PMC2528936, “Snake Cathelicidin from Bungarus fasciatus Is a Potent Peptide Antibiotics” (PLoS ONE, 2008).
